Source: US20240398772A1, “OXASPIRO DERIVATIVE, AND PREPARATION METHOD THEREFOR AND USE THEREOF” (SHUJING BIOPHARMA CO., LTD, priority 2021, published 2024)

Experiments:
MOR = target: T1, MOR (Homo sapiens, UniProt P35372); test: Agonist test on MOR, cAMP level (CHO-K1/OP3 cells, cAMP assay kit); format: cell-based; details: for EC50: forskolin-stimulated cAMP, read-out: EC50 agonizing MOR receptor to affect cAMP level; for Emax: maximal effect of DAMGO is 100%, read-out: Emax agonizing MOR receptor to affect cAMP level
T1 construct: expressed in transfected cells; host or cells: CHO-K1/OP3 (name from the earlier reading)
T1 sequence (P35372 whole entry): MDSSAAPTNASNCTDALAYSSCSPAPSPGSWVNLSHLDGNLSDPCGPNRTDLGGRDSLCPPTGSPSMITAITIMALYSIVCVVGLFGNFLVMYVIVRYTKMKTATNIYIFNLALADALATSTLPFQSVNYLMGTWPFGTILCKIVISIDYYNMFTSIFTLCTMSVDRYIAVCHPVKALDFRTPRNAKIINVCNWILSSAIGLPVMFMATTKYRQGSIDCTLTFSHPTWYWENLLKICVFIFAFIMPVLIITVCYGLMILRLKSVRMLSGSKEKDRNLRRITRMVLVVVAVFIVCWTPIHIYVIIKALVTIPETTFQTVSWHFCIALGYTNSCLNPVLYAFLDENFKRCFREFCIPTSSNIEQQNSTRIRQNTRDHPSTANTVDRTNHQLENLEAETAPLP
Method: 5×stimulation buffer was diluted to 1× with ddH2O, an appropriate amount of 500 mM IBMX (generally, the IBMX stock solution was prepared to be 500 mM, namely 1000×) was added to enable the final concentration of the IBMX to be 0.5 mM, and the mixture was mixed well for later use (after the IBMX was added, that precipitation occurred was normal, and the precipitate was dissolved by well mixing). It must be prepared right before use.
1.3.1.2 IBMX was dissolved with DMSO to prepare a 500 mM stock solution, which was aliquoted into 20 μL/tube and cryopreserved at −80° C. to avoid repetition of freezing and thawing.
1.3.1.3 Forskolin was dissolved with DMSO to prepare a 10 mM stock solution, which was aliquoted into 20 μL/tube and cryopreserved at −20° C. for later use.
The CAMP standard substance in the kit returned to room temperature, and an equivalent amount of the experimental buffer was added according to the volume marked on the bottle label. The mixture was vortexed for mixing, aliquoted according to 50 μL/tube, and cryopreserved at −20° C. for later use.
5 mL ddH2O was added to a bottle of cAMP-d2 and a bottle of anti-cAMP-cryptate lyophilized powder, respectively, and the mixture was mixed well by gently turning the mixture upside down, aliquoted according to 125, 62.5, and 30 μL, and the like, and cryopreserved in the dark at −80° C.
1.3.2.1 Positive compound DAMGO and the test compound were serially diluted 4-fold to obtain 10 concentrations with Bravo using experimental buffer in a compound plate (Greiner-781280) at a starting concentration of 2 μM (from DMSO stock solution diluted with experimental buffer) and 20 μM (from DMSO stock solution diluted with experimental buffer), respectively.
1.3.2.2 Cells cryopreserved were thawed in a water bath at 37° C., the cell suspension was added to a centrifuge tube containing 10 mL of HBSS buffer, and the mixture was centrifuged at 750 rpm for 5 min. The supernatant was discarded, the pellet was resuspended in an appropriate amount of experimental buffer, and 20 μL of the pellet was counted using a cell counter. An appropriate amount of the cell suspension was diluted to 0.4×10^6 cells/mL, and 5 μL of the cell suspension was added to each well of a cell plate (the cell density was 2000 cells/well) and centrifuged at 1000 rpm for 1 min. 5 μL of the diluted compound was transferred to a cell plate (PerkinElmer-6008280) with Bravo, 5 μL of 2 μM DAMGO (the final concentration was 1 μM) was transferred to positive control wells, and an equal volume of experimental buffer was transferred to negative control wells, and the cell plate was centrifuged at 1000 rpm for 1 min. The cell plate was sealed and incubated at room temperature for 15 min. Forskolin was diluted to 0.2 mM with DMSO, 25.1 nL of which was transferred to a cell plate with Tecan-D300e, and the plate was centrifuged at 1000 rpm for 1 min, sealed, and incubated at room temperature for 45 min.
The final concentration of the initial point was 712 nM.
1.3.2.4 Preparation of detection reagent: an appropriate amount of a cAMP-d2 stock solution and an anti-cAMP-cryptate stock solution was diluted with a lysis buffer according to the ratio of 1:20, the two solutions were then mixed well by turning the solutions upside down according to the ratio of 1:1, and vortexing was prohibited. 10 μL of the prepared detection reagent was added to a cell plate and centrifuged at 1000 rpm for 1 min. The cell plate was incubated at room temperature for 1 h in the dark. After the cell plate was centrifuged at 1000 rpm for 1 min, the plate was read using Envision. Excitation light at 340 nm, emission light at 620 nm and 665 nm.
The formula for calculating the compound activation rate in the agonist test: […]

MOR beta-arrestin = target: T2, MOR beta-arrestin (Homo sapiens, UniProt P35372); test: MOR beta-arrestin agonist test (PathHunter, U2OS/OPRM1 cell line); format: cell-based; details: Human Mu opioid β-arrestin U2OS/OPRM1 cell line; for Emax: maximal effect of DAMGO is 100%, read-out: Emax for activating beta-arrestin signaling pathway; for EC50: read-out: EC50 for activating beta-arrestin signaling pathway
T2 construct: expressed in transfected cells; host or cells: MOR beta-arrestin cell strain (U2OS/OPRM1 PathHunter per the earlier reading), kept under Hygromycin B and G418 selection
T2 sequence (P35372 whole entry): as above
Method: • Cell complete medium: MEM+10% FBS+1% PS+250 μg/mL Hygromycin B+500 μg/mL G418 +1×GlutaMAX • Cell inoculation medium: MEM+10% FBS+1% PS • Experimental buffer: 1×DPBS+0.1% BSA • Detection reagent: Galacton Star:Emerald II:PathHunter cell assay buffer=1:5:19
• i) Compound samples were dissolved in DMSO to a stock concentration of 10 mM; • ii) A sample dilution sequence on a 384-well LDV plate was prepared, wherein the first concentration point of the sample was 10 mM (FAC=30 μM), and the sample was serially diluted 3.162-fold to obtain a total of 11 concentration points; • iii) The sample dilution sequence and HPE and ZPE were transferred to a compound plate (PE #6008590) using an Echo machine, with each well 90 nL transferred.
• i) The MOR beta-arrestin cell strain was cultured in a cell complete medium at 37° C. with 5% CO2 to a confluence of 70-90%; • ii) the cells were digested and resuspended in the cell inoculation medium, and 20 μL of the MOR beta-arrestin cell suspension was added to each well of an assay plate (Corning #3570) at 7500 cells/well and incubated in an incubator at 37° C. with 5% CO2 for 24 h; • iii) 30 μL of an experimental buffer was added to a compound plate (PE #6008590), and the plate was centrifuged at 1000 rpm for 5 min; • iv) after 24 h, the assay plate was taken out, the medium was removed from the plate, and then 20 μL of the compound was transferred from each corresponding well of the compound plate to the assay plate with Bravo; • v) the assay plate was centrifuged at 500 rpm for 30 s and then placed into an incubator for incubation at 37° C. with 5% CO2 for 90 min; • vi) 10 μL of the beta-arrestin detection reagent was added to each well of the assay plate; • vii) after 1 h of incubation at room temperature in the dark, the plate was read on Envision.
The experimental data of the percent activation rate and concentrations of 11 points were fitted using XLFit to a parameter nonlinear logic
Use formula to calculate the EC50 value of the compound, and the results are shown in Table 7 (maximal effect of DAMGO is 100%).

[1] = tested on: pain threshold of a mouse; test: Mouse thermal radiation tail-flick method; format: in vivo, ICR mice; details: for Maximum analgesic percentage (% MPE): ICR mice, intragastric 10 mg/kg, Mean ± SEM, n = 9-10
Method: • Intragastric administration at a dose of 10 mg/kg;
ICR mice (normal grade, weighed 25-35 g, purchased from Shanghai Slac Laboratory Animal Co., Ltd.) were first mounted in a special plastic cylinder, their tails were exposed and allowed to droop naturally, and the measurements were made after the animals were calm. The radiation heat source could be an 8.75 mm projection lamp (32 W, adjustable). A light beam with the diameter of about 4 mm was emitted after being focused by a lens, which irradiated the skin at the junction of the middle third and the lower third of the tail (the light source and the skin at the tail must be closely attached); an electronic timer connected with the light source in parallel was used to synchronously record the irradiation duration, that is, when the irradiation started, a stopwatch was automatically started at the same time. When the tail of the animal obviously evaded, the timing was automatically stopped. The measured time interval was the tail flick latency. Mice with tail flick latency of 2-6 seconds were screened to participate in a grouping administration experiment. […] After a dose of a drug was administered to the mice, the pain threshold of the mice was measured at different times.
After a dose of a drug was administered to the mice, the pain threshold of the mice was measured at 0.5 h, 1 h, 2 h, and 3 h (effect view of the analgesic effect is shown in FIG. 1). The formula for calculating the maximum analgesic percentage (% MPE) after administration was as follows: % MPE=(post-administration pain threshold−pre-administration pain threshold)/(15−pre-administration pain threshold)×100%.

SMILES	EC50 (MOR) [nM]	Emax (MOR) [%]	Emax (MOR beta-arrestin) [%]	EC50 (MOR beta-arrestin) [nM]	Maximum analgesic percentage (% MPE) ([1]; 0.5 h after administration) [%]	Maximum analgesic percentage (% MPE) ([1]; 1 h after administration) [%]	Maximum analgesic percentage (% MPE) ([1]; 2 h after administration) [%]	Maximum analgesic percentage (% MPE) ([1]; 3 h after administration) [%]	Maintenance of the analgesic effect compared with oxycodone ([1]; mouse tail flick, 0.5-3 h after administration)	Drug effect compared with oxycodone ([1]; mouse tail flick, same dose (10 mg/kg intragastric))
Fc1ccc(C2(CCNC3Cc4ccccc4C3)CCOC3(CCOCC3)C2)nc1 (stereo not drawn) [Compound 8, N-(2-(4-(5-fluoropyridin-2-yl)-1,9-dioxaspiro[5.5]undecan-4-yl)ethyl)-2,3-dihydro-1H-inden-2-amine]	8.62	72	2.1	364						
Fc1ccc([C@]2(CCNC3Cc4ccccc4C3)CCOC3(CCOCC3)C2)nc1 [Compound 8-1, (R)—N-(2-(4-(5-fluoropyridin-2-yl)-1,9-dioxaspiro[5.5]undecan-4-yl)ethyl)-2,3-dihydro-1H-inden-2-amine]	4.1	92.8	3	> 30000	80.64 ± 9.27	85.69 ± 5.95	69.94 ± 10.43	87.16 ± 6.80	maintained for a longer period of time	better drug effect than oxycodone
Fc1ccc(C2(CCNC3Cc4cccc(Br)c4C3)CCOC3(CCOCC3)C2)nc1 (stereo not drawn) [Compound 10, 4-bromo-N-(2-(4-(5-fluoropyridin-2-yl)-1,9-dioxaspiro[5.5]undecan-4-yl)ethyl)-2,3-dihydro-1H-inden-2-amine]	2.79	80.9	4.5	4800						
Cc1c(Cl)cccc1CNCCC1(c2ccc(F)cn2)CCOC2(CCOCC2)C1 (stereo not drawn) [Compound 12, N-(3-chloro-2-methylbenzyl)-2-(4-(5-fluoropyridin-2-yl)-1,9-dioxaspiro[5.5]undecan-4-yl)ethan-1-amine]	7.63	89.8	6.3	> 30000						
Fc1ccc([C@]2(CCNCc3cccc(Cl)c3Cl)CCOC3(CCOCC3)C2)nc1 [Compound 13-1, (R)—N-(2,3-dichlorobenzyl)-2-(4-(5-fluoropyridin-2-yl)-1,9-dioxaspiro[5.5]undecan-4-yl)ethan-1-amine]	18.7	78.6	4.2	> 30000						
c1ccc(C2(CCNC3CCc4ccccc43)CCOC3(CCOCC3)C2)nc1 (stereo not drawn) [Compound 15, N-(2-(4-(pyridin-2-yl)-1,9-dioxaspiro[5.5]undecan-4-yl)ethyl)-2,3-dihydro-1H-inden-1-amine]	30.7	96.9	7.2	1780						
